# From ChEMBL document CHEMBL1201862, “PubChem BioAssay data set” (2004)
# Active and inactive are the calls of the source.
# Experiments:
# [1] = test system: Streptococcus sp. 'group A'; assay: growth inhibition of control SK(-) GAS strain, dose response, counter-screen for streptokinase expression inhibitor project, luminescence, kanamycin, BacTiterGlo, confirmation (AID 1900); format: functional, organism-based
# Streptococcus = assay: Group A Streptococcus viability loss, dose response, counter-screen for streptokinase expression inhibitor project, luminescence, BacTiterGlo (AID 1915); format: functional, organism-based;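 also: potency for reduction of bacterial viability or growth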
# [2] = molecular target: Heat shock protein HSP 90-alpha (Homo sapiens, UniProt P07900); format: functional, organism-based
# [3] = molecular target: T1, Rac GTPase-activating protein 1 (Homo sapiens, UniProt Q9H0H5); assay: MgcRacGAP GTPase-activating activity inhibitors, confirmation, biochemical, ADP Hunter fluorescence, primary and confirmatory (AID 624330); format: functional
# T1 sequence (Q9H0H5 whole entry): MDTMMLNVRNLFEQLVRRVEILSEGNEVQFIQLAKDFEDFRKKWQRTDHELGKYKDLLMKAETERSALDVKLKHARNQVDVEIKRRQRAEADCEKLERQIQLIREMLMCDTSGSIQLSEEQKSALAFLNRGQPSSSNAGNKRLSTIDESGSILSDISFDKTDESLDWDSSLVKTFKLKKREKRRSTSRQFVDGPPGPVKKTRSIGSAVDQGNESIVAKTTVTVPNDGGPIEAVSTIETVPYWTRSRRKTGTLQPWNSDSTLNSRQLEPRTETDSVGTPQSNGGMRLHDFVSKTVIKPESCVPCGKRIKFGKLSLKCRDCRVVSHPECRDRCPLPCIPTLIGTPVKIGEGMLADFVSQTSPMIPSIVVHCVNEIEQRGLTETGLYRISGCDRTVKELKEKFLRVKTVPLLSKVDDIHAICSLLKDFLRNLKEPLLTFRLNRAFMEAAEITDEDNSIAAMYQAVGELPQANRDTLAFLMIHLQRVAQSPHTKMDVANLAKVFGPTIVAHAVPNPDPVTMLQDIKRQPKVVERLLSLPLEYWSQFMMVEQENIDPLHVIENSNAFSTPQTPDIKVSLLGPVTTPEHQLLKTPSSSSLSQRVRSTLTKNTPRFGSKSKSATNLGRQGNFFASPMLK
# [4] = HeLa cell cytotoxicity, dose response, cytotoxicity control for MgcRacGAP inhibitor project (AID 624300); format: functional
# [5] = molecular target: T2, DNA repair and recombination protein RAD54-like (Homo sapiens, UniProt Q92698); assay: inhibitors of human RAD54 branch migration, confirmation, biochemical, fluorescence, cherry-picked samples, dose series (AID 651657); format: functional
# T2 sequence (Q92698 whole entry): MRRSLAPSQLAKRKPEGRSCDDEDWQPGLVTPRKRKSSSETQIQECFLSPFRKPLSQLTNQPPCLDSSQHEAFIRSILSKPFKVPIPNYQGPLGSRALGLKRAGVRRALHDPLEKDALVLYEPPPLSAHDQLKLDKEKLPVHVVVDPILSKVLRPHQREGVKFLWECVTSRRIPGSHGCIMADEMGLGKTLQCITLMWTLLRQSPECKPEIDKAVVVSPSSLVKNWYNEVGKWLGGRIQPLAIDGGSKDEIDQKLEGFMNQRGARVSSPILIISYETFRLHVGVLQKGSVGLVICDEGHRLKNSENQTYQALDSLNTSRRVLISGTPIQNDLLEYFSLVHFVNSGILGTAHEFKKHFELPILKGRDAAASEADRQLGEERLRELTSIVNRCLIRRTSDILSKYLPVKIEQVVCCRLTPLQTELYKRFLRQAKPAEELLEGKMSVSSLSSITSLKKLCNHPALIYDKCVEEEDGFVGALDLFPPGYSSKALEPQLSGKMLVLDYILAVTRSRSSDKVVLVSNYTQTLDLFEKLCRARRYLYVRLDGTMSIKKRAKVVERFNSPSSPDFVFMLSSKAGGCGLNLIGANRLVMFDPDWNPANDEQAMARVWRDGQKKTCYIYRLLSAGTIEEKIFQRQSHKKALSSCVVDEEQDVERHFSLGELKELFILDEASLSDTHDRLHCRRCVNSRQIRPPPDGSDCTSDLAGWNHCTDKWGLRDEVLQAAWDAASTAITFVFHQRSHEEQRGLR
# [6] = molecular target: T3, Endoribonuclease toxin MazF (Escherichia coli K-12, UniProt P0AE70); assay: fluorescent RNA oligo signal without MazF, dose response, counter-screen for MazEF activator project, biochemical, fluorescence, single-stranded RNase substrate (AID 588502); format: functional
# T3 sequence (P0AE70 whole entry): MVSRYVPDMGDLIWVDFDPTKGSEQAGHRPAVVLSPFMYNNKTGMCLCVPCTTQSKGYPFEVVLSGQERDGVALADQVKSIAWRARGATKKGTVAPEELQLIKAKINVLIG
# [7] = molecular target: T3, Endoribonuclease toxin MazF; assay: MazF toxin RNase activators, dose response, biochemical, fluorescence, single-stranded RNA substrate, uHTS hits (AID 588481); format: functional
# Aminopeptidase N = molecular target: T4, Aminopeptidase N (Plasmodium falciparum FcB1/Columbia, UniProt O96935); assay: P. falciparum M1AAP inhibitors, biochemical, fluorogenic H-Leu-NHMec substrate, 1536-well (AID 1445); set-up: species or system Plasmodium falciparum 3D7, 3D7
# T4 sequence (O96935 whole entry): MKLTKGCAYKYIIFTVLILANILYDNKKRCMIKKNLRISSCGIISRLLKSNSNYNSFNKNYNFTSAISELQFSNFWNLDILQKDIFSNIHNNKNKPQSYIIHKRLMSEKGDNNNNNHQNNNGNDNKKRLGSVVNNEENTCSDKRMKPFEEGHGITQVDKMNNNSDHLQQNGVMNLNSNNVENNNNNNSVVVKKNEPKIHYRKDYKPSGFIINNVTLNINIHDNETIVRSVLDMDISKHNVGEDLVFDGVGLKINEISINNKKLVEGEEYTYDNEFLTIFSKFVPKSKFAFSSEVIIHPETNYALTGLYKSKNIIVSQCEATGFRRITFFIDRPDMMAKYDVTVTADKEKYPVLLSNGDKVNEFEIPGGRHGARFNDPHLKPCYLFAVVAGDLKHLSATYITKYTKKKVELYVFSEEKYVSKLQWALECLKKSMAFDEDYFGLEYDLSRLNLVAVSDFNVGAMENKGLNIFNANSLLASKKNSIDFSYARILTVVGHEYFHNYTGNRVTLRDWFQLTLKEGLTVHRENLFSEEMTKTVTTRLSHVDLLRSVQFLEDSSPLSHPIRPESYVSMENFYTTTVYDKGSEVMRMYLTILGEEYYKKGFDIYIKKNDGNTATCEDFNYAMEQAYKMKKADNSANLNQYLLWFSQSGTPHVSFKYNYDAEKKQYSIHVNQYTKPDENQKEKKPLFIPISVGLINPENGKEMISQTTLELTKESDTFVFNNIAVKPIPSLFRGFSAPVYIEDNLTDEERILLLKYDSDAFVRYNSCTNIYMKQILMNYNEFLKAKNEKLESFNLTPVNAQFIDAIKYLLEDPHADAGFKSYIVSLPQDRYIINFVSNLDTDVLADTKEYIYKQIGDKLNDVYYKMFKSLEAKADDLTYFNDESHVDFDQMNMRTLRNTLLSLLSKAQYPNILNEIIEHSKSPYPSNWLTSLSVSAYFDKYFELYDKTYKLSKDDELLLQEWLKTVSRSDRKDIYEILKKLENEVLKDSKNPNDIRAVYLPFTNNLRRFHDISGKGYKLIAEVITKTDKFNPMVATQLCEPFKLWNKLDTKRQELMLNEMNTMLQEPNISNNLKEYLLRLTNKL
# [8] = inhibitors of Vif binding to APOBEC3G peptide, primary screen, biochemical, TR-FRET, GST-Vif 1-94, biotin-A3G peptide, dose response retest (AID 1117319); format: functional;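 also: TR-FRET signal of purified GST-Vif binding a biotinylated A3G peptide; inhibitors lower the FRET signal by blocking Vif and A3G binding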
# [9] = molecular target: T5, Zinc finger protein mex-5 (Caenorhabditis elegans, UniProt Q9XUB2); assay: MEX-5/TCR-2 RNA interaction inhibitors, dose response, biochemical, C. elegans, fluorescence polarization (AID 1960)
# T5 sequence (Q9XUB2 whole entry): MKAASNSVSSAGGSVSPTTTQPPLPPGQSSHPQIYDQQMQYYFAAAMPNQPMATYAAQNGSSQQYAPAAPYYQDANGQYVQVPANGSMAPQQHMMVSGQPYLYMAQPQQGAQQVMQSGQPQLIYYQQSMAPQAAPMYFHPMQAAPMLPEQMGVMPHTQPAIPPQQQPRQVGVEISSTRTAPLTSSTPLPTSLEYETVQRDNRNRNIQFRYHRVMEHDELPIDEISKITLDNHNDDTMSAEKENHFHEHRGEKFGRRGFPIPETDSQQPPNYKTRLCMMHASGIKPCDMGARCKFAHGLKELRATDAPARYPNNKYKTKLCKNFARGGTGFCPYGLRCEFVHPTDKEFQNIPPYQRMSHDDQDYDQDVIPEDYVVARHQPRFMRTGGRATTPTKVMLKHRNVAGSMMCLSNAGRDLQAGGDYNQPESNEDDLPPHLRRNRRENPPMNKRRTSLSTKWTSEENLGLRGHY
# [10] = molecular target: T6, RNA-binding protein pos-1 (Caenorhabditis elegans, UniProt G5EF15); assay: inhibitors of POS-1/mex-3 RNA binding, dose response, biochemical, fluorescence polarization (AID 1964);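 also: purified POS-1 fused to maltose binding protein made in E. coli; potency of compounds blocking POS-1 binding to fluorescent RNA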
# T6 sequence (G5EF15 whole entry): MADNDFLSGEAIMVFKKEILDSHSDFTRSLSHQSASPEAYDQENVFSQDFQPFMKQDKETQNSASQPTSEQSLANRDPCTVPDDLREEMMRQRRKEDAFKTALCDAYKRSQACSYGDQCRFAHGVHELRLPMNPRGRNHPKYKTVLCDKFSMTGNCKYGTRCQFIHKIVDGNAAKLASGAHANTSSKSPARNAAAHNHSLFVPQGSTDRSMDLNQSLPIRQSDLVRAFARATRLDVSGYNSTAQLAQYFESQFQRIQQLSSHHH
# Genome polyprotein = Genome polyprotein (dengue virus type 2, UniProt P29990); assay: Dengue-2 NS5 methyltransferase inhibitors, primary screen, biochemical, confirmation dose response (AID 588689); format: functional
# [11] = molecular target: T7, Carboxy-terminal domain RNA polymerase II polypeptide A small phosphatase 1 (Homo sapiens, UniProt Q9GZU7); assay: inhibitors of CTDSP1, concentration-response testing, biochemical assay, absorbance-based, actives from ultra-high-throughput screening (AID 540297); format: functional
# T7 sequence (Q9GZU7 whole entry): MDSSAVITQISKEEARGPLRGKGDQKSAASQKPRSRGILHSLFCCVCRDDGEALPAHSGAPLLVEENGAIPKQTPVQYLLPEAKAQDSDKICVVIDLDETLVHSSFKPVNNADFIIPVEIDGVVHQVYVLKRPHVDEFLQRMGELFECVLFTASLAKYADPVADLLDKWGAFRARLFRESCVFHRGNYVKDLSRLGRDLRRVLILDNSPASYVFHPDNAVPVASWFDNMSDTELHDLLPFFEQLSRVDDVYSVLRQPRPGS
# Chain of Genome polyprotein (P29990 2492-3391 limits assumed): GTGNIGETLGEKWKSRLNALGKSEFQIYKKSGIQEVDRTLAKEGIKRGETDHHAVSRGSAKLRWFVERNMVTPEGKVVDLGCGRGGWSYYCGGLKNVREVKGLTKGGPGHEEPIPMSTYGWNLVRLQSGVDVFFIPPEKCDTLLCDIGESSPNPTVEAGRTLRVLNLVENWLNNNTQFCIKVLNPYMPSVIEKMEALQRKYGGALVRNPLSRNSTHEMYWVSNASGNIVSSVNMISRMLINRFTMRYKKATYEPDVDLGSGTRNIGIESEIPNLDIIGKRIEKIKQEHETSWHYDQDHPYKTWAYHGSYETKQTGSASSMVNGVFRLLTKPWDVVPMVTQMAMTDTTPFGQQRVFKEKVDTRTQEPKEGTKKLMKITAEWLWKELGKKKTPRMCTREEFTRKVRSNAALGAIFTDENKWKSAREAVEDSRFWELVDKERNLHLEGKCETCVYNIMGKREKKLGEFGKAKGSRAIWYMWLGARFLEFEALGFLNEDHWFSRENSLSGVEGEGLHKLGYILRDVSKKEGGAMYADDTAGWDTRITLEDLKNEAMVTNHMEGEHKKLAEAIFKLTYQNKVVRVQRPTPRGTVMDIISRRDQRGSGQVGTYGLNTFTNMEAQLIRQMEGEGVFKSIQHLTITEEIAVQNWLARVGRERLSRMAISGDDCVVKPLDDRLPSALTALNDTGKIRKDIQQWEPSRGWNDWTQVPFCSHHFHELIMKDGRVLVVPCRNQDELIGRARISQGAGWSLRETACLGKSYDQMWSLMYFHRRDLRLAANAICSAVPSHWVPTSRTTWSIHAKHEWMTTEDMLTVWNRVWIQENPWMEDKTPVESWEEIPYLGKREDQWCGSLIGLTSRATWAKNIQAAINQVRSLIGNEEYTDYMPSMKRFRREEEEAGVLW
smiles,measurement,setting,value
O=C(Nc1nc(-c2ccccn2)cs1)c1ncc(Cl)c(Cl)c1Cl,EC50,[1],0.39 µM (active)
same,EC50,Streptococcus,1.64 µM (active)
same,AC50,[2],3.55 µM (active)
Clc1ccc(OCCOCCNCc2ccccc2)cc1Cl,IC50,[3],149 µM (active)
same,CC50,[4],91.9 µM (active)
OC1CCCN(Cc2c3ccccc3cc3ccccc23)C1 (stereo not given),AC50,[5],4.09 µM (active)
COc1cc2nc3c(O)n(CCN4CCCCC4)cnc-3c2cc1OC,AC50,[5],36.3 µM (active)
NC(=O)c1ccc(-n2nnnc2SCC(=O)Nc2ccccc2F)cc1,EC50,[6],> 99 µM (inactive)
same,EC50,[7],> 99 µM (inactive)
CCCCc1cc(=O)oc2c(CN(C)C)c(O)ccc12,IC50,Aminopeptidase N,30.2 µM (active)
CC(C)C(NC(N)=O)C(=O)NC1CCCCC1 (stereo not given),IC50,[8],> 100 µM (active)
Cn1c(C(=O)NCCCN2CCOCC2)cc2c(=O)n(C)c3ccccc3c21,AC50,[5],26.1 µM (active)
same,EC50,[9],> 300 µM (not active)
same,EC50,[10],> 300 µM (not active)
O=C1C(=Cc2cccn2-c2ccc(O)cc2)C(=O)c2ccccc21,IC50,Genome polyprotein,10.1 µM (active)
same,EC50,[6],50.3 µM (inactive)
same,EC50,[7],> 99 µM (inactive)
Cc1ccc(C=C2C(=O)c3ccccc3C2=O)o1,EC50,[6],85.2 µM (inactive)
same,EC50,[7],> 99 µM (inactive)
same,IC50,[11],6.25 µM (active)
